Patent publication US9708336B2, “Metallo-beta-lactamase inhibitors” (priority 2014, dated 2017)
Where two headings read alike, the source gives them in different places.

Experiments:
NDM-1 = NDM-1 (Klebsiella pneumoniae, UniProt C7C422); test: biochemical; assay type: biochemical; settings: read-out: NDM-1 IC50
IMP-1 = IMP-1 (Serratia marcescens, UniProt P52699); test: biochemical; assay type: biochemical; settings: read-out: IMP-1 IC50
VIM-1 = VIM-1 (Pseudomonas aeruginosa (strain ATCC 15692 / DSM 22644 / CIP 104116 / JCM 14847 / LMG 12228 / 1C / PRS 101 / PAO1), UniProt A0A0F7KYQ8); test: Enzyme activity: determination of IC50, fluorescence assay with CCF2-FA substrate (VIM-1); assay type: biochemical
[1] = system: Escherichia coli expressing NDM-1 (CLB30016); test: Antibiotic potentiation activity: synergistic concentration (MITC95) with imipenem, OD600 growth; assay type: cell-based
Description: (§1) Antibiotic Potentiation Activity: Determination of Synergistic Concentration
(§2) The bacterial strains tested included the clinical strains Escherichia coli expressing NDM-1 (CLB30005, CLB30016), Serratia marcescens expressing IMP-1 (CL5741), and Klebsiella pneumoniae expressing VIM-1 (IHMA599644) Inhibitor activity was measured in the presence and absence of imipenem in a 384-well microplate.
(§3) The clinical strains CLB30016, CL5741 and IHMA599644 were grown on trypticase soy agar containing 5% sheep's blood. The clinical strain CLB30005 was grown on Mueller Hinton broth agar containing 8 ug/ml imipenem. The bacteria on agar plates were incubated at 35° C. with humidity overnight. The following day, individual colonies from each clinical strain were picked and resuspended in 5 ml saline to attain an OD600 of 0.14, 0.11, 0.15 and 0.13, for CLB30005, CLB30016, CL5741 and IHMA599644, respectively. These were further diluted 1:100 into 1.1×CAMHB and used to inoculate the test wells as described below.
(§4) Imipenem in 10 mM 3-(N-morpholino)propanesulfonic acid (MOPS, pH 7) was stored in single use aliquots at −80° C. […] On the day of the assay, 4 μl of antibiotic was added to 45 ul of bacteria followed by 1 μl of test compound and mixed by pipetting and with an orbital shaker. The concentration of antibiotic used in the assay was 4 μg/ml, or optionally 1 μg/ml. Microplates were covered and incubated at 35° C. for 22 hours to 24 hours. At the end of the incubation, absorbance was determined using a spectrophotometer.

[2] = system: Klebsiella pneumoniae expressing VIM-1 (IHMA599644); test: as above; assay type: cell-based
Description: as §1, §2, §3, §4

[3] = system: Serratia marcescens expressing IMP-1 (CL5741); test: as above; assay type: cell-based
Description: as §1, §2, §3, §4

[4] = NDM-1 enzyme, CCF2-FA fluorescence assay
[5] = IMP-1 enzyme, CCF2-FA fluorescence assay
[6] = VIM-1 enzyme, CCF2-FA fluorescence assay, read-out: VIM-1 IC50
[7] = Escherichia coli expressing NDM-1 (CLB30016), 95% growth inhibition
[8] = Klebsiella pneumoniae expressing VIM-1 (IHMA599644), 95% growth inhibition
[9] = Serratia marcescens expressing IMP-1 (CL5741), 95% growth inhibition
[10] = NDM-1 enzyme, CCF2-FA substrate
[11] = IMP-1 enzyme, CCF2-FA substrate
[12] = VIM-1 enzyme, CCF2-FA substrate, read-out: VIM-1 IC50
[13] = (CLB30016, NDM-1), 95% growth inhibition
[14] = Klebsiella pneumoniae IHMA599644 (VIM-1), 95% growth inhibition
[15] = Serratia marcescens CL5741 (IMP-1), 95% growth inhibition
[16] = VIM-1 IC50, VIM-1 enzyme, CCF2-FA fluorescence assay
[17] = concentration giving 95% inhibition of bacterial growth
[18] = fluorescence assay with CCF2-FA substrate

Sequence of IMP-1 (P52699 whole entry, looked up): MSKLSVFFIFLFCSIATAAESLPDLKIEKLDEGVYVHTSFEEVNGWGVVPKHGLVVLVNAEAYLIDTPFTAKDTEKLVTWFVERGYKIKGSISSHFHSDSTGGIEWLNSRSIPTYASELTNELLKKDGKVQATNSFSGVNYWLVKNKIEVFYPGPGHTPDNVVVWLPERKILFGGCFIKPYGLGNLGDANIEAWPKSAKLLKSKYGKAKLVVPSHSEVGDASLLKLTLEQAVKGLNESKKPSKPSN
Sequence of NDM-1 (C7C422 whole entry, looked up, species assumed): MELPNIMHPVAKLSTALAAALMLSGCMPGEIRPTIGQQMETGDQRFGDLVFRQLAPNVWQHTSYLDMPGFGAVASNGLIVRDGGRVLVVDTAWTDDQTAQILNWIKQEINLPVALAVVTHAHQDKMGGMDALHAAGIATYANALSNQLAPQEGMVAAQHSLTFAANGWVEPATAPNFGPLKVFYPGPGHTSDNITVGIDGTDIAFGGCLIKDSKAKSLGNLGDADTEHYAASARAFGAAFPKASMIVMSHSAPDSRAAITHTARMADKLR

Structure (SMILES)	IC50 (VIM-1; [12]) [nM]	Escherichia coli MITC95 [1, 13] [µM]	Klebsiella pneumoniae MITC95 [2, 14] [µM]	Serratia marcescens MITC95 [3, 15] [µM]	other results
NS(=O)(=O)c1c(C(F)(F)F)ccc(-c2cccn3cncc23)c1-c1nnn[nH]1 [Example 485, 3-(Imidazo[1,5-a]pyridin-8-yl)-2-(1H-tetrazol-5-yl)-6-(trifluoromethyl)benzenesulfonamide]					IC50 (NDM-1; [4]): 1.57 nM; IC50 (IMP-1; [5]): 4.98 nM; IC50 (VIM-1; [6]): 0.197 nM; Escherichia coli MITC95 [1, 7]: 3.125 µM; Klebsiella pneumoniae MITC95 [2, 8]: 6.25 µM; Serratia marcescens MITC95 [3, 9]: 12.5 µM
NS(=O)(=O)c1c(C(F)(F)F)ccc([C@H]2CC[C@H](NC3CC[C@@H]4CNCC[C@H]4C3)CC2)c1-c1nnn[nH]1 (stereo partly drawn) [Example 684, 3-{4-[(4aS,8aS)-decahydroisoquinolin-6-ylamino]cyclohexyl}-2-(1H-tetrazol-5-yl)-6-(trifluoromethyl)benzene sulfonamide]	10.8	3.125	12.5	6.25	IC50 (NDM-1; [10]): 38.6 nM; IC50 (IMP-1; [11]): 75.7 nM
Nc1ncc2ccc(-c3cccc(S(N)(=O)=O)c3-c3nnn[nH]3)cc2n1 [Example 420, 3-(2-Aminoquinazolin-7-yl)-2-(1H-tetrazol-5-yl)benzenesulfonamide]					IC50 (NDM-1; [4]): 4.74 nM; IC50 (IMP-1; [5]): 217 nM; IC50 (VIM-1; [16]): 30.7 nM; Escherichia coli MITC95 [1, 7]: 1.563 µM; Klebsiella pneumoniae MITC95 [2, 8]: 18.75 µM; Serratia marcescens MITC95 [3, 9]: 9.375 µM
NS(=O)(=O)c1cccc(-c2ccc(CNCc3ccncn3)cc2)c1-c1nnn[nH]1 [Example 377, 4′-{[(pyrimidin-4-ylmethyl)amino]methyl}-2-(1H-tetrazol-5-yl)biphenyl-3-sulfonamide]					IC50 (NDM-1; [4]): 5.27 nM; IC50 (IMP-1; [5]): 73.7 nM; IC50 (VIM-1; [16]): 256 nM; Escherichia coli MITC95 [1, 7]: 1.563 µM; Klebsiella pneumoniae MITC95 [2, 8]: 200 µM; Serratia marcescens MITC95 [3, 9]: 3.125 µM
Cc1nc(N)ccc1-c1ccc(C(F)(F)F)c(S(N)(=O)=O)c1-c1nn[nH]n1 [Example 555, 3-(6-amino-2-methyl-3-pyridyl)-2-(2H-tetrazol-5-yl)-6-(trifluoromethyl)benzenesulfonamide]	0.177	0.5859	3.125	6.25	
C[N+]1(C)CCc2c(cccc2-c2ccc(C(F)(F)F)c(S(N)(=O)=O)c2-c2nn[nH]n2)C1 [Example 520, 2,2-Dimethyl-5-(3-sulfamoyl-2-(2H-tetrazol-5-yl)-4-(trifluoromethyl)phenyl)-1,2,3,4-tetrahydroisoquinolin-2-ium]	1.96	3.125	3.125	3.125	
Cn1cncc1CN1CCC(c2ccc(-c3cccc(S(N)(=O)=O)c3-c3nnn[nH]3)cc2)CC1 [Example 620, 3-[4-[1-[(3-methylimidazol-4-yl)methyl]-4-piperidyl]phenyl]-2-(1H-tetrazol-5-yl)benzenesulfonamide]	1030	7.813	>200	2.344	
Nc1nc2c(-c3ccc(CCC4CCNCC4)c(S(N)(=O)=O)c3-c3nn[nH]n3)cccc2s1 [Example 540, 3-(2-Aminobenzo[d]thiazol-4-yl)-6-(2-(piperidin-4-yl)ethyl)-2-(2H-tetrazol-5-yl)benzenesulfonamide]	6.7	1.563	12.5	6.25	
CS(=O)(=O)NC1CCC(c2cccc(S(N)(=O)=O)c2-c2nn[nH]n2)CC1 (centres unmarked) [Example 169, 3-(4-(methylsulfonamido)cyclohexyl)-2-(2H-tetrazol-5-yl)benzenesulfonamide]					IC50 (VIM-1; VIM-1 IC50, fluorescence assay with CCF2-FA substrate): 57.6 nM; Escherichia coli expressing NDM-1 (CLB 30016) MITC95 [1, 17]: 2.344 µM; Klebsiella pneumoniae expressing VIM-1 (IHMA 599644) MITC95 [2, 17]: 50 µM; Serratia marcescens expressing IMP-1 (CL5741) MITC95 [3, 17]: 3.125 µM
C[N+]1(C)CCC(Cc2ccc(-c3ccc(C4CNC4)cc3)c(-c3nn[nH]n3)c2S(N)(=O)=O)CC1 [Example 605, 3-[4-(azetidin-3-yl)phenyl]-6-[(1,1-dimethylpiperidin-1-ium-4-yl)methyl]-2-(2H-tetrazol-5-yl)benzenesulfonamide]	3.89	6.25	3.125	6.25	IC50 (IMP-1; [11]): 160 nM
Cc1cc(N)ncc1-c1ccc(C(F)(F)F)c(S(N)(=O)=O)c1-c1nn[nH]n1 [Example 557, 3-(6-amino-4-methyl-3-pyridyl)-2-(2H-tetrazol-5-yl)-6-(trifluoromethyl)benzenesulfonamide]	0.656	0.3906	6.25	6.25	
Cn1ccnc1CN1CCC(c2ccc(-c3cccc(S(N)(=O)=O)c3-c3nnn[nH]3)cc2)CC1 [Example 621, 3-[4-[1-[(1-methylimidazol-2-yl)methyl]-4-piperidyl]phenyl]-2-(1H-tetrazol-5-yl)benzenesulfonamide]	508	3.906	>200	1.563	
CC(C)(C)Cc1ccc(-c2cccc3sc(N)nc23)c(-c2nn[nH]n2)c1S(N)(=O)=O [Example 537, 3-(2-Aminobenzo[d]thiazol-4-yl)-6-neopentyl-2-(2H-tetrazol-5-yl)benzenesulfonamide]	66.7	50	>200	50	
NS(=O)(=O)c1c(CCC2CCNCC2)ccc(-c2ccnc3ccccc23)c1-c1nn[nH]n1 [Example 452, 6-(2-(piperidin-4-yl)ethyl)-3-(quinolin-4-yl)-2-(2H-tetrazol-5-yl)benzenesulfonamide]					IC50 (VIM-1; [6]): 1.98 nM; Escherichia coli MITC95 [1, 7]: 1.563 µM; Klebsiella pneumoniae MITC95 [2, 8]: 4.688 µM; Serratia marcescens MITC95 [3, 9]: 9.375 µM
NCc1ccc(-c2ccc(Br)c(S(N)(=O)=O)c2-c2nn[nH]n2)cc1 [Example 271, 4′-(aminomethyl)-4-bromo-2-(2H-tetrazol-5-yl)-[1,1′-biphenyl]-3-sulfonamide]					IC50 (VIM-1; [6]): 11.7 nM; Escherichia coli MITC95 [1, 7]: 0.3906 µM; Klebsiella pneumoniae MITC95 [2, 8]: 2.344 µM; Serratia marcescens MITC95 [3, 9]: 0.5859 µM
NS(=O)(=O)c1c(CCC2CCNCC2)ccc(-c2ccc(C3CNC3)cc2)c1-c1nnn[nH]1 [Example 598, 3-[4-(azetidin-3-yl)phenyl]-6-[2-(4-piperidyl)ethyl]-2-(1H-tetrazol-5-yl)benzenesulfonamide]	4.41	1.563	1.563	3.125	
NS(=O)(=O)c1c(C(F)(F)F)ccc([C@H]2CC[C@H](NC3CC[C@H]4NCC[C@@H]34)CC2)c1-c1nnn[nH]1 (stereo partly drawn) [Example 692, 3-{4-[(3aR,6aR)-octahydrocyclopenta[b]pyrrol-4-ylamino]cyclohexyl}-2-(1H-tetrazol-5-yl)-6-(trifluoromethyl)benzene sulfonamide]		1.563	6.25	3.125	IC50 (NDM-1; [10]): 6.36 nM; IC50 (IMP-1; [11]): 19.8 nM
NC1CCC(N2CC(c3ccc(-c4ccc(C(F)(F)F)c(S(N)(=O)=O)c4-c4nnn[nH]4)cc3)C2)CC1 (centres unmarked) [Example 809, 4′-[1-(4-aminocyclohexyl)azetidin-3-yl]-2-(1H-tetrazol-5-yl)-4-(trifluoromethyl)biphenyl-3-sulfonamide]					IC50 (NDM-1; [18]): 4.02 nM; IC50 (IMP-1; [18]): 11.3 nM; Escherichia coli MITC95 ([1]; CLB30016 (NDM-1), 95% inhibition of bacterial growth): 3.125 µM; Klebsiella pneumoniae MITC95 ([2]; IHMA599644 (VIM-1), 95% inhibition of bacterial growth): 50 µM; Serratia marcescens MITC95 ([3]; CL5741 (IMP-1), 95% inhibition of bacterial growth): 6.25 µM
